These results are taken from US10961286B2, “Nucleic acids, vectors, host cells, and methods for recombinantly producing water-soluble membrane proteins” (CORNELL UNIVERSITY, priority 2014, dated 2021).

In data set [1] the target is T1, EmrE (dimeric, detergent-free OspA-EmrE-ApoAI*) (UniProt P02647+P23895).
T1 construct: made in house; host or cells: E. coli BL21(DE3), pET28a
Kind of data set: Ligand binding by tryptophan fluorescence quenching, in vivo solubilized EmrE. On the set-up: species or system E. coli. To be noted: for binding affinity of OspA-EmrE-ApoAI* compared to detergent-solubilized EmrE: 10 μM protein, EmrE comparator in DDM buffer. On the procedure: Fluorescence spectra of protein samples were collected using a Fluorolog-Tau-3 time-resolved spectrofluorometer (Horiba). Protein concentration of OspA-EmrE-ApoAI* in SEC buffer and EmrE in DDM containing buffer (20 mM Tris-HCl, pH 7.5, 150 mM NaCl, and 0.08% w/v DDM) was 10 μM. Fluorescence spectra using a 295-nm excitation were collected after each volume of ligand. A small magnetic stir bar was added to the 1-cm path-length quartz cuvette containing either the sample or buffer. The stirring speed was set such that the surface was not noticeably disturbed. Approximately 1 min was allowed between the addition of ligand and the beginning of spectra collection. A total of 3 replicates were performed with the first sample preparation to control for experimental variability. After this, only one experimental replicate of the following second and third sample preparations were performed. Thus, each ligand-binding curve reflects the average of 3 replicates from 3 different protein preparations to control for biological and preparation variability. A 10-nm slit width was used for both excitation and emission. The interval was set at 2.0 nm and the integration time at 0.1 s. Only one scan of the emission between 300 and 400 nm was collected per titration. […] Quenching of fluorescence was recorded and plotted using GraphPad PRISM 6.
It was next determined whether EmrE that had been solubilized by fusion to ApoAI* was able to bind to known ligands. […] There are a total of 14 aromatic amino acids in EmrE (4 tryptophans, 5 tyrosines, and 5 phenylalanines), some of which participate in ligand binding and protein stability and permit determination of binding constants based on fluorescence quenching (Bay et al., “Spectroscopic Analysis of Small Multidrug Resistance Protein EmrE in the Presence of Various Quaternary Cation Compounds,” Biochim. Biophys. Acta 1818:1318-31 (2012), which is hereby incorporated by reference in its entirety). The ligand binding activity of dimeric, detergent-free OspA-EmrE-ApoAI* was measured and compared to detergent-solubilized EmrE. […]

In data set [2] the target is in vitro solubilized EmrE (Escherichia coli, UniProt P23895). To be noted: cited from earlier work.
The target of another data set is T2, CYP17A1 (Homo sapiens, UniProt P05093).
T2 construct: microsomes containing native CYP17A1 (5 pmol); made in house; host or cells: transformed yeast (microsomes)
T2 sequence (P05093 1-508): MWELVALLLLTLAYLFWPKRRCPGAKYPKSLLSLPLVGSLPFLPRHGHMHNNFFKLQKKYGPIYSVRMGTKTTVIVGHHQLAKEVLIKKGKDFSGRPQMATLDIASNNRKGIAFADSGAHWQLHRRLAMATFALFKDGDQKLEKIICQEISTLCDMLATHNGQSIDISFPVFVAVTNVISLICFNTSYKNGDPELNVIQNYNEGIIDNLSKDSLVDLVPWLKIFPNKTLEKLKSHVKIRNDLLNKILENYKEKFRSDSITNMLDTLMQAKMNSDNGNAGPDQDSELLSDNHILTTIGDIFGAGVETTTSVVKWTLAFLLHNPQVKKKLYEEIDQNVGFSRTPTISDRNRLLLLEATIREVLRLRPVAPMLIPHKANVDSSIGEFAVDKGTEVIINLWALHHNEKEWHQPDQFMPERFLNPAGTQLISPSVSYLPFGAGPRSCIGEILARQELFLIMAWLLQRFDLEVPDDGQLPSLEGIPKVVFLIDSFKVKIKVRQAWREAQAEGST
Kind of data set: Lyase assay: augmentation of CYP17A1 lyase activity by cyt b5 variants. It counts as biochemical. As for the experimental part: In a 2-ml polypropylene tube, microsomes containing native CYP17A1 (5 pmol) and cytochrome P450 oxidoreductase ([…]), at room temperature for 5 min before adding substrate. The reaction mixture was then diluted to 0.2 ml with 50 mM potassium phosphate buffer (pH 7.4), and substrate 17-hydroxypregnelonone (17-P5; 5 μM with 80,000 CPM in methanol, 2% of incubation volume) was added. The resulting mixture was pre-incubated at 37° C. for 3 min before adding NADPH (1 mM) and incubating at 37° C. for another 20 min. The reaction mixture was extracted with 1 ml dichloromethane, and the organic phase was dried under nitrogen flow. Steroids were analyzed using an Agilent 1260 Infinity HPLC system with UV detector and β-RAM4 in-line scintillation counter (LabLogic, Brandon, Fla.). Extracted steroid products were dissolved in 20 μl of methanol, and 5 μl injections were resolved with a 50×2.1 mm, 2.6 μm, C8 Kinetex column (Phenomenex, Torrance, Calif.), equipped with a guard column at a flow rate of 0.4 mL min^−1. A methanol/water linear gradient was used: 27% methanol from 0 to 0.5 min, 39% to 16 min, 44% to 20 min, 60% to 22 min, 71% to 30 min, 75% to 30.5 min, 27% to 33 min. Products were identified by retention times of external standards chromatographed at the beginning and ends of the experiments. The flow rate of the scintillation cocktail (Bio-SafeII, Research Products International, Mount Prospect, Ill.) was 1.2 mL min^−1, and the data were processed with Laura4 software (LabLogic).

Data set [3] has as its target T3, cytochrome P450c17 (17α-hydroxylase/17,20-lyase; CYP17A1) (Homo sapiens, UniProt P05093).
T3 sequence (P05093 1-508): T2 sequence (P05093 1-508)
The settings on record: cited from earlier work.

Where two headings read alike, the source gives them in different places.

With `C[n+]1ccc(-c2cc[n+](C)cc2)cc1` [MV, methyl viologen], the “binding affinity of OspA-EmrE-ApoAI* compared to detergent-solubilized EmrE” value in data set [1] is reported as “higher”. Further, the dissociation constant (Kd) (in general, the concentration at which binding is half-saturated) in data set [1] (in vivo solubilized EmrE, detergent-free) was 48 µM; in data set [2] (in vitro solubilized EmrE in dodecylmaltoside) it was 46.2 µM; in data set [2] (in vitro solubilized EmrE in small unilamellar vesicles), 38.2 µM; in data set [2] (in vitro solubilized EmrE in sodium dodecyl sulphate) it was 5.4 µM.

As to `c1ccc([P+](c2ccccc2)(c2ccccc2)c2ccccc2)cc1` [TPP+, tetraphenylphosphonium], in data set [1], the “binding affinity of OspA-EmrE-ApoAI* compared to detergent-solubilized EmrE” value is “higher”.

B1: detergent-solubilized cyt b5: wild-type human cytochrome b5 that had been detergent solubilized (protein)
chain: MAEQSDEAVKYYTLEEIQKHNHSKSTWLILHHKVYDLTKFLEEHPGGEEVLREQAGGDATENFEDVGHSTDAREMSKTFIIGELHPDDRPKLNKPPETLITTIDSSSSWWTNWVIPAISAVAVALMYRLYMAED
On to B1, for which the “stimulation of lyase activity compared to the in vivo solubilized version” value in the data set with CYP17A1 was “slightly better stimulator of lyase activity”. Further, the “stimulation of CYP17A1 lyase activity (DHEA formed from 17-P5)” value in the data set with CYP17A1 (5-25 pmol cyt b5 variant) was “plateaued”. Further, in the data set with CYP17A1 (at slightly lower concentrations), the “stimulation of CYP17A1 lyase activity” value is listed as “dose-dependent stimulation”. Also, the “stimulation of 17,20-lyase activity” value in data set [3] (recombinant cyt b5 from E. coli, literature) is recorded as “stimulated 17,20-lyase activity”.

B2: cyt b5: human cytochrome b5, 134-residue bitopic membrane protein (protein, UniProt P00167 1-134, looked up)
chain: B1 chain
modifications: full-length
notes: human cytochrome b5, 134-residue bitopic membrane protein
Take B2: in data set [3] (a molar equivalent of cyt b5), the “increase of the rate of the 17,20-lyase reaction” value was 10 fold.
